Assay results: ChEMBL document CHEMBL1149542, “Carbonic anhydrase inhibitors: inhibition of human, bacterial, and archaeal isozymes with benzene-1,3-disulfonamides--solution and crystallographic studies” (Bioorg Med Chem Lett, 2007)

What was measured:
[1] = molecular target: Carbonic anhydrase 6 (Homo sapiens) (UniProt P23280)
[2] = molecular target: Carbonic anhydrase 14 (Homo sapiens) (UniProt Q9ULX7)
[3] = molecular target: Carbonic anhydrase 4 (Homo sapiens) (UniProt P22748)
[4] = molecular target: Carbonic anhydrase 13 (Mus musculus) (UniProt Q9D6N1); test: Inhibition of mouse CA13
Carbonic anhydrase 13 (Mus musculus), sequence (Q9D6N1 whole entry, looked up): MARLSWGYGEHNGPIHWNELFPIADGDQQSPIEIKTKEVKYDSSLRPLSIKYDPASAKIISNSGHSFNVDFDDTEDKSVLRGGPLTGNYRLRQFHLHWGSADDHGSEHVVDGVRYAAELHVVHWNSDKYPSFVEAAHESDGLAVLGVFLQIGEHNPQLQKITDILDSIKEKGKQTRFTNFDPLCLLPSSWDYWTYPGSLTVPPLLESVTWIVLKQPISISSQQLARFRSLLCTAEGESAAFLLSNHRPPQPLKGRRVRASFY

[5] = molecular target: Carbonic anhydrase 5B, mitochondrial (Homo sapiens) (UniProt Q9Y2D0)
Carbonic anhydrase 5B, mitochondrial (Homo sapiens), sequence (Q9Y2D0 whole entry): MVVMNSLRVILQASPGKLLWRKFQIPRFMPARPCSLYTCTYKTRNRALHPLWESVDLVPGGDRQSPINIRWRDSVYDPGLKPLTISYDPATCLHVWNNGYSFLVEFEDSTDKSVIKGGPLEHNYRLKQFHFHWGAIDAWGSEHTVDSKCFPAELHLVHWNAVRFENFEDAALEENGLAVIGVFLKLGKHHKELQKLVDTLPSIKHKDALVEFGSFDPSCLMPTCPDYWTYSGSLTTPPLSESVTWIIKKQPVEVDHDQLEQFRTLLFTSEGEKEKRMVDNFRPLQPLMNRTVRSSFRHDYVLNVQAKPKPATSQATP

[6] = molecular target: Carbonic anhydrase 9 (Homo sapiens) (UniProt Q16790)
Description: Inhibition of human CA9 catalytic domain

[7] = molecular target: Carbonic anhydrase 5A, mitochondrial (Homo sapiens) (UniProt P35218)
Carbonic anhydrase 5A, mitochondrial (Homo sapiens), sequence (P35218 whole entry): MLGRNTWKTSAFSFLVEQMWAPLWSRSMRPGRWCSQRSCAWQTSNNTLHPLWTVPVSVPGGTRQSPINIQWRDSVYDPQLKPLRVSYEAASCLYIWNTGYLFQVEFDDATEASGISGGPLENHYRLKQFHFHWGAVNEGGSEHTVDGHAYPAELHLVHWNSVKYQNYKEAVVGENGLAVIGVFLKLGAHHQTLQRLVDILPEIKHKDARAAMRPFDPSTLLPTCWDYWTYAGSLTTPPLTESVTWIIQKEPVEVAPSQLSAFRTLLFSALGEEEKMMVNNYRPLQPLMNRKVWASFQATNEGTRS

[8] = molecular target: Carbonic anhydrase 12 (Homo sapiens) (UniProt O43570)
Carbonic anhydrase 12 (Homo sapiens), sequence (O43570 whole entry): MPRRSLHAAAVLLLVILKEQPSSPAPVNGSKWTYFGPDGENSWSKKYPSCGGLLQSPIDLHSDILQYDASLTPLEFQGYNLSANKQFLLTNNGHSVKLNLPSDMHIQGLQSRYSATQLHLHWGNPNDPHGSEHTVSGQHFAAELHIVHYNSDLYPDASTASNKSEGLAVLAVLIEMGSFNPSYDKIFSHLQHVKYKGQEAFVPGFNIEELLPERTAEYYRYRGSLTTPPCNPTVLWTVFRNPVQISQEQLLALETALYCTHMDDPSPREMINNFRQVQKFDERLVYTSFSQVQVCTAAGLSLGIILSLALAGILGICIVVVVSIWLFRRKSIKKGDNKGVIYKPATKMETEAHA

[9] = test system: Methanosarcina thermophila
Description: Inhibition of Methanosarcina thermophila gamma CA

Helicobacter pylori [10] = test system: Helicobacter pylori
Description: Inhibition of Helicobacter pylori alpha CA

Helicobacter pylori [11] = test system: Helicobacter pylori; remark: listed apart in the source
Description: Inhibition of Helicobacter pylori beta CA

[12] = molecular target: Carbonic anhydrase 1 (Homo sapiens) (UniProt P00915)
Carbonic anhydrase 1 (Homo sapiens), sequence (P00915 2-261 limits assumed): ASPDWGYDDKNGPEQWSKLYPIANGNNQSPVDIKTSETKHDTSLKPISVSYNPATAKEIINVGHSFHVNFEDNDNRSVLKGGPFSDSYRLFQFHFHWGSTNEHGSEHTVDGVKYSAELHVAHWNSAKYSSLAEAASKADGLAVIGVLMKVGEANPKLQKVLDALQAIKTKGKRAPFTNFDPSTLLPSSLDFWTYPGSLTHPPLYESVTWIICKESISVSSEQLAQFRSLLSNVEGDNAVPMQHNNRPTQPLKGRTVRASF

[13] = molecular target: Carbonic anhydrase 7 (Homo sapiens) (UniProt P43166)
Carbonic anhydrase 7 (Homo sapiens), sequence (P43166 whole entry): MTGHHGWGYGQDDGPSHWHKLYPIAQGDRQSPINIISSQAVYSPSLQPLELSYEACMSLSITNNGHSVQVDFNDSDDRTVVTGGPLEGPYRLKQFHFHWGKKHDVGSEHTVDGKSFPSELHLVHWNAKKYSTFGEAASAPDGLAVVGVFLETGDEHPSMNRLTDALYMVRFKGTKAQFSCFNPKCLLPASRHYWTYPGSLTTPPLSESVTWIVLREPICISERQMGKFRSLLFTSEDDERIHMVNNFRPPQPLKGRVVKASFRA

Carbonic anhydrase 14 (Homo sapiens), sequence (Q9ULX7 whole entry): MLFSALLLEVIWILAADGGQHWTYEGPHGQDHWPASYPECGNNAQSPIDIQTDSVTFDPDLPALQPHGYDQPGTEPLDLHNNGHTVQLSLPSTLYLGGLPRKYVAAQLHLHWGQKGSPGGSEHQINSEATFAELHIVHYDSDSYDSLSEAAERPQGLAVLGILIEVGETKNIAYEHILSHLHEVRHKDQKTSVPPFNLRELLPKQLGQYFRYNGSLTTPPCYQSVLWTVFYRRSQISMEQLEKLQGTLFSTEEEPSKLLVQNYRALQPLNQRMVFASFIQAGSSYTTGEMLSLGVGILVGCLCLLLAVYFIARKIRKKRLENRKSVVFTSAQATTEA
Carbonic anhydrase 6 (Homo sapiens), sequence (P23280 whole entry): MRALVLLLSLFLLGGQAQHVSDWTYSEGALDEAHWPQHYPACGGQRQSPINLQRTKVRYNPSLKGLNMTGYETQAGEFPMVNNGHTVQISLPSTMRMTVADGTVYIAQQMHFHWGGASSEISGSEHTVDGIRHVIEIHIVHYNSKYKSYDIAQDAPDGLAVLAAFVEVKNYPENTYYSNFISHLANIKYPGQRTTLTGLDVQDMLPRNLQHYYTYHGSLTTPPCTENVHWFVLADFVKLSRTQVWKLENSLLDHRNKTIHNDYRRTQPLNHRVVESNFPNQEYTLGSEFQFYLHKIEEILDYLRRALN
Carbonic anhydrase 4 (Homo sapiens), sequence (P22748 whole entry): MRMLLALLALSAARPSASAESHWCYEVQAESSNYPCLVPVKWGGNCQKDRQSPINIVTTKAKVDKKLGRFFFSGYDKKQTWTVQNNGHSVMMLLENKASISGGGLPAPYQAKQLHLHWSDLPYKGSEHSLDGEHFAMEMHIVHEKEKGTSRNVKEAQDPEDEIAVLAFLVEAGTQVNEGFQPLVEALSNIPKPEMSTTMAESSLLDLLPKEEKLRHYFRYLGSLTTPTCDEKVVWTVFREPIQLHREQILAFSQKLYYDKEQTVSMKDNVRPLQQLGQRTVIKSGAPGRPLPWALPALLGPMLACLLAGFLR

Row | Structure (SMILES) | Kinact [1] [nM] | Kinact [2] [nM] | Kinact [3] [nM] | Kinact [4] [µM] | Kinact [5] [nM] | Kinact [6] [nM] | Kinact [7] [nM] | Kinact [8] [nM] | Kinact [9] [nM] | Kinact (Helicobacter pylori [10]) [nM] | Kinact (Helicobacter pylori [11]) [nM] | Kinact [12] [nM] | Kinact [13] [nM]
1 | NS(=O)(=O)c1cc2c(cc1Cl)NC(C(Cl)Cl)NS2(=O)=O (stereo unspecified) | 3660 | 4100 | 427 | 3.89 | 603 | 367 | 4220 | 355 | – | – | – | – | –
2 | CC(=O)/N=c1/sc(S(N)(=O)=O)nn1C | – | – | – | – | – | – | – | – | 140 | 225 | 176 | – | –
3 | NS(=O)(=O)c1cc(C(=O)O)c(NCC2CCCO2)cc1Cl (stereo unspecified) | – | – | – | – | – | – | 499 | – | – | – | – | 62 | 513
4 | CCN[C@H]1CN(CCCOC)S(=O)(=O)c2sc(S(N)(=O)=O)cc21 | 0.9 | 24 | – | – | 30 | – | 50 | – | 460 | 210 | 128 | – | –
